Laboratory results reported in publication PMC11111895, “Identification of a dCache-type chemoreceptor in Campylobacter jejuni that specifically mediates chemotaxis towards methyl pyruvate” (Frontiers in Microbiology, 2024).
Like-named read-outs stand apart in the source and are kept apart here.

Tests used:
Tlp11-LBD = test: Microscale thermophoresis (MST) of Tlp11-LBD; format: binding, C. jejuni ATCC 33560
Experimental: (§1) The His-tag dye (MO-L018 RED-tris-NTA, NanoTemper, Germany) was adjusted to a final concentration of 25 nM and used to label the purified protein with a His-tag. The compound was diluted to a series of concentrations in phosphate-buffered saline ([Duan et al., 2023]) with 0.05% Tween 20 (PBS-T) buffer and mixed in a ratio of 1:1 with protein. The mixtures were loaded into capillaries (Monolith™ Series capillaries, NanoTemper) by means of capillary action. Thermophoresis was measured using a Monolith™ NT.115 (NanoTemper) instrument, with 40% excitation and 40% MST power configuration. The time-traces of changes in fluorescence, which reflected the thermophoretic movement of labeled protein affected by different concentrations of compound were recorded, and the dose–response curves were fitted with the ‘temperature jump and thermophoresis’ mode. Data analysis was performed using MO. Affinity Analysis version 2.3 (NanoTemper) and Prism version 8.0.2 (GraphPad Software, United States).
MST quantifies interaction affinities by detecting the direct movement of fluorescent molecules along temperature gradients in capillaries. Ligand binding changes the thermophoretic movement of proteins, which can be used to derive Kds, by sequentially scanning capillaries with different ligand concentrations. MST has been applied to the study of weak binding systems and validated to provide reliable results ([Linke et al., 2016]; [Gao et al., 2021]). […] We also tested the binding abilities of methyl pyruvate analogues to Tlp11-LBD using MST (Supplementary Table S3).

[1] = target: Tlp11-LBD homologue (WP_066386874.1, residues 33-320); test: MST of Tlp11-LBD homologue; format: binding, Helicobacter himalayensis; settings: H. himalayensis LBD
Experimental: as §1
To evaluate whether these potential Tlp11-LBD homologues could bind to methyl pyruvate, we conducted a structural analysis of the LBDs of six chemoreceptors from C. coli, H. equorum, H. himalayensis, H. mesocricetorum, H. ganmani, and C. upsaliensis using Alphafold 2. […]

[2] = test system: Tlp11[1-342]-Tar[200-553] (Tlp342Tar200); test: Microfluidic chemotaxis of E. coli expressing hybrid chemoreceptor Tlp342Tar200; format: cell-based, E. coli VS188; settings: microfluidic device, 50 min
Experimental: The E. coli cells expressing hybrid chemoreceptor and GFP were grown in tryptone broth, up to an OD600 of 0.55, at 34°C, with shaking at 250 rpm. The cells were harvested by means of centrifugation at 5,000 rpm, washed twice with Tethering Buffer (10 mM KH2PO4, 10 mM K2HPO4, and 0.1 mM EDTA, pH 7.0), and resuspended in Tethering Buffer such that an OD600 of 5.5 was attained. The chemotactic responses of E. coli cells to the compounds were measured using a microfluidic device ([Si et al., 2012]). The collected E. coli cells were added to the sink pores of the device and allowed to freely diffuse into the observation channel for 40 min. Subsequently, the compound solution was added to the source pores, to establish a concentration gradient gradually in the observation channel of the device. Fluorescence intensity in the observation channel was detected using an LSM 800 laser scanning confocal microscope (Zeiss, Germany). Data were analyzed using ImageJ software.
To determine whether methyl pyruvate stimulates transmembrane signaling through Tlp11-LBD, we fused C. jejuni ATCC 33560 Tlp11-LBD with the cytoplasmic region of the E. coli chemoreceptor Tar to construct Tlp11-Tar hybrid chemoreceptors (Figure 3A). Five hybrid receptors with different fusion positions in the second transmembrane helix (TM2) were obtained: Tlp11[1-342]-Tar[200-553] (Tlp342Tar200), Tlp11[1-343]-Tar[200-553] (Tlp343Tar200), Tlp11[1-346]-Tar[204-553] (Tlp346Tar204), Tlp11[1-347]-Tar[204-553] (Tlp347Tar204), and Tlp11[1-348]-Tar[204-553] (Tlp348Tar204) (Supplementary Figure S5A). To verify the activities of these hybrid chemoreceptors, we expressed each protein as a chimera in green fluorescent protein (GFP)-labeled E. coli VS188 without any other chemoreceptors, such that each hybrid receptor served as the only chemoreceptor in the E. coli. […] These chemotactic responses triggered by glucose through the phosphotransferase system are independent of the chemoreceptor LBD ([Neumann et al., 2012]). […] Thus, we used this hybrid receptor for subsequent chemotaxis measurements.

[3] = test system: pin-head Tar (Tar without LBD) or WT Tar; test: Microfluidic chemotaxis of E. coli expressing pin-head Tar or WT Tar; format: cell-based, E. coli VS188; settings: microfluidic device, 50 min
[4] = test system: Tlp11[1-343]-PhoQ[202-486] (Tlp343PhoQ202); test: Hybrid kinase Tlp11-PhoQ GFP reporter assay; format: cell-based, E. coli MG1655/ΔPhoQ; settings: stimulation for 40 min
Experimental: The reporter plasmid pUA66-PmgtLA-GFP and the plasmid encoding the hybrid kinase were together transformed into E. coli MG1655/ΔPhoQ strain. E. coli cells containing the reporter and Tlp11-PhoQ chimera were incubated in Medium A, at 37°C, with shaking (200 rpm), until an OD600 of 0.4 was attained, following which different concentrations of methyl pyruvate were added to the medium and the cells were incubated for 40 min. The fluorescence intensity of the cells was monitored using a plate reader (Varioskan™ LUX, Life Technologies) equipped with a 488 nm laser and a 528/12 bandpass filter. The acquired data were analyzed using Prism 8.0.2.
To construct the signal input module, we fused the Tlp11-LBD with the PhoQ cytoplasmic region, to design the Tlp11-PhoQ hybrid kinases (Supplementary Figure S6), Tlp11[1-337]-PhoQ[200-486] (Tlp337PhoQ200), Tlp11[1-339]-PhoQ[200-486] (Tlp339PhoQ200), Tlp11[1-339]-PhoQ[201-486] (Tlp339PhoQ201), Tlp11[1-340]-PhoQ[202-486] (Tlp340PhoQ202), Tlp11[1-340]-PhoQ[200-486] (Tlp340PhoQ200), Tlp11[1-341]-PhoQ[202-486] (Tlp341PhoQ202), Tlp11[1-342]-PhoQ[[…]] (Tlp342PhoQ202), Tlp11[1-343]-PhoQ[202-486] (Tlp343PhoQ202), which connected Tlp11 and PhoQ in TM2 (Supplementary Figure S7C). The activity of each chimera in sensing methyl pyruvate was determined by measuring the fluorescence intensity of GFP in the E. coli MG1655/ΔPhoQ strain.

In the case of COC(=O)C(C)=O [methyl pyruvate, Methyl pyruvate], the Kd (Tlp11-LBD; 250 nM protein, methyl pyruvate at pH 7.0, read-out: Kd of Tlp11-LBD binding) is reported as 688 ± 140 µM, the Kd (Tlp11-LBD; Tlp11-LBD saturated with 5 mM quinoline, read-out: Kd of Tlp11-LBD interacting with methyl pyruvate) is reported as 3900 ± 1100 µM and the Kd (Tlp11-LBD; Tlp11-LBD saturated with 5 mM toluene, read-out: Kd of Tlp11-LBD interacting with methyl pyruvate) is reported as 18000 ± 3000 µM. The Kd [1] was 1100 ± 300 µM, the “chemotactic response of E. coli expressing Tlp342Tar200 as the sole receptor” value [2] was “strong attractant response” and the “chemotactic response of E. coli expressing pin-head Tar or WT Tar as the sole chemoreceptor” value [3] was “no response or a much weaker response”. The “response (GFP fluorescence intensity) of Tlp343PhoQ202” value [4] was “significant concentration-dependence”.
